Where two headings read alike, the source gives them in different places.

This assay has as its target Active Human ERK2 (hERK2) (Homo sapiens (Human), UniProt P28482). Put plainly: Active Human ERK2 (hERK2) Activity Assay (IMAP-FP). Type of assay: biochemical. A digest of the protocol:
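Phosphorylation by activated human ERK2 (0.5 nM) at 30 μM ATP, peptide substrate 900 nM unlabeled with 80 nM labeled, proceeds 60 min. IMAP beads stop the reaction; after 60 min equilibration, product is measured by fluorescence polarization.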

Setting [1] is: phosphorylated active hERK2, 30 μM ATP, average, read-out: ERK 2 Human average IC50.
The mark [2] stands for this setting: read-out: AERK2 IC50 (Active human ERK2 Activity Assay).

Sequence of Active Human ERK2 (hERK2) (P28482 whole entry): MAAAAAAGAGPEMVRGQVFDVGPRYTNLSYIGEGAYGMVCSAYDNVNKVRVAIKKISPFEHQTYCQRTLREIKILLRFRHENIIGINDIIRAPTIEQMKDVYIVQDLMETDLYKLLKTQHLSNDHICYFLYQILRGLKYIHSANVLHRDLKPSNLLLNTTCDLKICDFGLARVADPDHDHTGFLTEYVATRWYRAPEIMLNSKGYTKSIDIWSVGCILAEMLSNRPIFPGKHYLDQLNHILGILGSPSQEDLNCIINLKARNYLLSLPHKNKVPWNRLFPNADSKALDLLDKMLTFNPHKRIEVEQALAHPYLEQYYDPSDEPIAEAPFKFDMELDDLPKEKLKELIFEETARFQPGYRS

On to `Cc1cc(-c2n[nH]c3cc(NC(=O)NCc4ccno4)ncc23)ccn1` [Example 435], for which the IC50 under setting [1] was 1.08 nM.

Regarding `O=C(NCC1CCC1)Nc1cc2[nH]nc(-c3ccc(F)cc3)c2cn1` [Example 592], the half-inhibitory concentration (IC50) under setting [1] is 2.88 nM.

Regarding `Cc1cc(-c2n[nH]c3cc(NC(=O)NCc4cc[nH]n4)ncc23)ccn1` [Example 419], the IC50 under setting [1] is 2.72 nM.

Consider `Cc1cc(-c2n[nH]c3cc(NC(=O)NCc4cn5c(C)cccc5n4)ncc23)ccn1` [Example 392], for which, under setting [1], the IC50 is 22.6 nM.

As to `C[C@@H](NC(=O)Nc1cc2[nH]nc(C(=O)NCC3CCCC(O)C3)c2cn1)c1ccccc1` (stereo partly shown) [Example 132], the IC50 under setting [1] was determined as 3.2 nM.

As to `O=C(Nc1cc2[nH]nc(-c3ccc(F)cc3)c2cn1)NC1CCOC1` (stereo not shown) [Example 612], the IC50 under setting [1] is 12.6 nM.

As to `Cc1cc(-c2n[nH]c3cc(NC(=O)NCC(=O)N(C)C)ncc23)ccn1` [Example 187], under setting [1], the IC50 was 52.3 nM.

`COC[C@@H](NC(=O)Nc1cc2[nH]nc(-c3ccnc(C#N)c3)c2cn1)c1ccc(F)cc1` [Example 304]: the IC50 under setting [1] worked out at 1.75 nM.

Take `COc1ccc(CNC(=O)Nc2cc3[nH]nc(C4CC4)c3cn2)cc1` [Example 155]: the IC50 under setting [1] was 60.1 nM.

Take `COc1ccnc([C@@H](C)NC(=O)Nc2cc3[nH]nc(-c4ccnc(C)c4)c3cn2)c1` [Example 231]: the IC50 under setting [1] was found to be 1.53 nM.

Consider `C[C@@H](NC(=O)Nc1cc2[nH]nc(-c3ccc(N4CCCCC4)nc3)c2cn1)c1ccc(F)cc1` [Example 244], for which the IC50 under setting [1] turned out to be 9.85 nM.

In the case of `Cc1cc(-c2n[nH]c3cc(NC(=O)NC4CCCC(Oc5cccc(F)c5)C4)ncc23)ccn1` (stereo not shown) [Example 659], the 50% inhibitory concentration (IC50) under setting [1] was 51.9 nM.

Consider `Cc1cc(-c2n[nH]c3cc(NC(=O)NCCF)ncc23)ccn1` [Example 199], for which, under setting [1], the IC50 was found to be 4.86 nM.

With `CC[C@H](NC(=O)Nc1cc2[nH]nc(-c3ccnc(C)c3)c2cn1)c1ccc(Cl)cc1` [Example 413], the IC50 under setting [1] amounted to 39.2 nM.

For `C[C@@H](NC(=O)Nc1cc2[nH]nc(-c3ccnc(F)c3)c2cn1)c1ccc(Cl)cc1` [Example 57, 1-[(1R)-1-(4-chlorophenyl)ethyl]-3-[3-(2-fluoropyridin-4-yl)-1H-pyrazolo[4,3-c]pyridin-6-yl]urea], the half-inhibitory concentration (IC50) is, setting by setting: under setting [1], 1.84 nM; under setting [2], 0.2 to 1.7 nM.

For the compound `Cc1cc(-c2n[nH]c3cc(NC(=O)N[C@@H]4CCSc5ccccc54)ncc23)ccn1` [Example 264], under setting [1], the IC50 was 2.08 nM.

In the case of `Cc1cc(-c2n[nH]c3cc(NC(=O)NCC4(c5ccc(OC(F)(F)F)cc5)CC4)ncc23)ccn1` [Example 268], the IC50 under setting [1] is 91.6 nM.

For the compound `O=C(NCc1ccc(F)cc1)Nc1cc2[nH]nc(-c3ccc(OC(F)(F)F)cc3)c2cn1` [Example 675], the IC50 under setting [1] amounted to 89.2 nM.

For the compound `Cc1cc(-c2n[nH]c3cc(NC(=O)NC(C)c4ccc(F)c(F)c4)ncc23)ccn1` (stereo not shown) [Example 338], the half-inhibitory concentration (IC50) under setting [1] was found to be 0.998 nM.

For `C[C@@H](NC(=O)Nc1cc2[nH]nc(-c3ccnc(F)c3)c2cn1)c1ccc(F)c(Cl)c1` [Example 81, 1-[(1R)-1-(3-chloro-4-fluorophenyl)ethyl]-3-[3-(2-fluoropyridin-4-yl)-1H-pyrazolo[4,3-c]pyridin-6-yl]urea], the IC50 under setting [1] came to 1.91 nM.

Turning to `C[C@@H](NC(=O)Nc1cc2[nH]nc(C#N)c2cn1)c1ccccc1` [Example 537, (R)-1-(3-cyano-1H-pyrazolo[4,3-c]pyridin-6-yl)-3-(1-phenylethyl)urea], the concentration for half-maximal inhibition (IC50) under setting [1] turned out to be 66.6 nM.

For `COC(=O)C1CC1c1n[nH]c2cc(NC(=O)N[C@H](C)c3ccccc3)ncc12` (stereo partly shown) [Example 643], the IC50 under setting [1] stood at 1.33 nM.

For the compound `Cc1cc(-c2n[nH]c3c(F)c(NC(=O)N[C@H](CO)c4ccccc4)ncc23)ccn1` [Example 544], under setting [1], the IC50 is 1.28 nM.

As for `C[C@@H](NC(=O)Nc1cc2[nH]nc(-c3ccc4nncn4c3)c2cn1)c1ccc(F)cc1` [Example 246], the IC50 under setting [1] is 0.581 nM.

On to `Cc1cc(-c2n[nH]c3cc(NC(=O)N[C@H]4CN(C)C[C@@H]4C4CCOCC4)ncc23)ccn1` [Example 210], for which the IC50 under setting [1] is 96.8 nM.

In the case of `Cc1cc(-c2n[nH]c3cc(NC(=O)NCc4csc5ccc(Cl)cc45)ncc23)ccn1` [Example 488], the IC50 under setting [1] is 5.85 nM.

`Cc1cc(-c2n[nH]c3cc(NC(=O)N[C@H]4CN(C)C[C@@H]4F)ncc23)ccn1` [Example 328, 1-((3S,4S)-4-fluoro-1-methylpyrrolidin-3-yl)-3-(3-(2-methylpyridin-4-yl)-1H-pyrazolo[4,3-c]pyridin-6-yl)urea]: the IC50 under setting [1] is 1.57 nM.

As for `C[C@@H](NC(=O)Nc1cc2[nH]nc(C3CCC3)c2cn1)c1ccc(Cl)cc1` [Example 151], the IC50 under setting [1] was 11.1 nM.

In the case of `Cc1cc(-c2n[nH]c3cc(NC(=O)NCC4COCCO4)ncc23)ccn1` (stereo not shown) [Example 464], the IC50 under setting [1] amounted to 3.57 nM.

For the compound `Cc1cc(-c2n[nH]c3cc(NC(=O)N[C@H](CN(C)C)c4ccccc4)ncc23)ccn1` [Example 482], the half-inhibitory concentration (IC50) under setting [1] amounted to 0.29 nM.

Turning to `Cc1cc(-c2n[nH]c3cc(NC(=O)NCc4ccc(F)c(Cl)c4)ncc23)ccn1` [Example 56, 1-(3-chloro-4-fluorobenzyl)-3-[3-(2-methylpyridin-4-yl)-1H-pyrazolo[4,3-c]pyridin-6-yl]urea], the IC50 under setting [1] is 0.411 nM and the IC50 under setting [2] fell in the range of 0.2 to 1.7 nM.

Regarding `COC(=O)C1CC1c1n[nH]c2cc(NC(=O)N[C@H](C)c3ccccc3)ncc12` (stereo partly shown) [Example 644], under setting [1], the IC50 was 1.07 nM.

In the case of `Cc1cc(-c2n[nH]c3cc(NC(=O)N[C@H]4CCOc5cc(F)ccc54)ncc23)ccn1` [Example 276, 1-[(4S)-7-fluoro-3,4-dihydro-2H-chromen-4-yl]-3-[3-(2-methylpyridin-4-yl)-1H-pyrazolo[4,3-c]pyridin-6-yl]urea], under setting [1], the IC50 is 14.7 nM.

Consider `CCNC(=O)Nc1cc2[nH]nc(-c3ccc(F)cc3)c2cn1` [Example 608], for which the IC50 under setting [1] is 3.81 nM.

On to `C[C@@H](NC(=O)Nc1cc2[nH]nc(-c3cc[n+]([O-])cc3)c2cn1)c1ccccc1` [Example 93, 1-[3-(1-oxidopyridin-4-yl)-1H-pyrazolo[4,3-c]pyridin-6-yl]-3-[(1R)-1-phenylethyl]urea], for which the IC50 under setting [1] was 0.383 nM and the 50% inhibitory concentration (IC50) under setting [2] lay within 0.2 to 1.7 nM.

`Cc1cc(-c2n[nH]c3cc(NC(=O)NCC(O)C4CCCCC4)ncc23)ccn1` (stereo not shown) [Example 389]: the IC50 under setting [1] was 4.11 nM.

`Cc1cc(-c2n[nH]c3cc(NC(=O)NCc4ncnn4C)ncc23)ccn1` [Example 424]: the concentration for half-maximal inhibition (IC50) under setting [1] stood at 2.55 nM.

Turning to `C[C@@H](NC(=O)Nc1cc2[nH]nc(-c3ccnc(Cl)c3)c2cn1)c1ccc(F)c(Cl)c1` [Example 75, 1-[(1R)-1-(3-chloro-4-fluorophenyl)ethyl]-3-[3-(2-chloropyridin-4-yl)-1H-pyrazolo[4,3-c]pyridin-6-yl]urea], under setting [1], the IC50 stood at 2.64 nM.

Take `Cc1cc(-c2n[nH]c3cc(NC(=O)N[C@@H](C)c4ccccn4)ncc23)ccn1` [Example 176]: the IC50 under setting [1] was determined as 41 nM.

For `Cc1cc(-c2n[nH]c3c(Br)c(NC(=O)N[C@H](C)c4ccc(Cl)cc4)ncc23)ccn1` [Example 86, 1-[7-bromo-3-(2-methylpyridin-4-yl)-1H-pyrazolo[4,3-c]pyridin-6-yl]-3-[(1R)-1-(4-chlorophenyl)ethyl]urea], the IC50 under setting [1] was determined as 455 nM.

For the compound `COCC(NC(=O)Nc1cc2[nH]nc(-c3ccnc(C)c3)c2cn1)c1ccccn1` (stereo not shown) [Example 348], under setting [1], the IC50 came out at 2.16 nM.

As for `Cc1cc(-c2n[nH]c3cc(NC(=O)NC(C)C4CCOC4)ncc23)ccn1` (stereo not shown) [Example 528], under setting [1], the IC50 turned out to be 12.7 nM.

As to `COC[C@@H](NC(=O)Nc1cc2[nH]nc(-c3ccncc3)c2cn1)c1ccccc1` [Example 545], the IC50 under setting [1] was 0.236 nM.

Regarding `COC(=O)C1CC1c1n[nH]c2cc(NC(=O)N[C@H](C)c3ccccc3)ncc12` (stereo partly shown) [Example 641], under setting [1], the IC50 worked out at 1100 nM.

For the compound `Cc1cc(-c2n[nH]c3cc(NC(=O)N[C@@H](CN)c4ccccc4)ncc23)ccn1` [Example 172], the IC50 under setting [1] was determined as 243 nM.

Turning to `Cc1cc(-c2n[nH]c3cc(NC(=O)NC(CO)c4cc(F)cc(F)c4)ncc23)ccn1` (stereo not shown) [Example 365], the IC50 under setting [1] turned out to be 0.603 nM.

With `Cc1cc(-c2n[nH]c3cc(NC(=O)N[C@@H]4CCCOc5ccccc54)ncc23)ccn1` [Example 285], under setting [1], the IC50 turned out to be 0.382 nM.

Consider `O=C(Nc1cc2[nH]nc(-c3ccc(F)cc3)c2cn1)NC1CCOC1` (stereo not shown) [Example 609], for which, under setting [1], the IC50 worked out at 5.83 nM.

Take `Cc1cc(-c2n[nH]c3cc(NC(=O)NCc4ccc(Cl)cn4)ncc23)ccn1` [Example 478]: the half-inhibitory concentration (IC50) under setting [1] came out at 6.01 nM.

Take `Cc1cc(-c2n[nH]c3cc(NC(=O)NC4CCCC(Oc5cccc(F)c5)C4)ncc23)ccn1` (stereo not shown) [Example 657]: the IC50 under setting [1] is 4.67 nM.

`O=C(Nc1cc2[nH]nc(C3CC3)c2cn1)N[C@@H]1CCCOc2ccccc21` [Example 295]: under setting [1], the IC50 turned out to be 2.67 nM.

As for `Cc1cc(-c2n[nH]c3cc(NC(=O)NCCOc4ccccc4)ncc23)ccn1` [Example 453], the IC50 under setting [1] came to 1.62 nM.

Consider `COC(C)CNC(=O)c1n[nH]c2cc(NC(=O)N[C@H](C)c3ccccc3)ncc12` (stereo partly shown) [Example 131], for which the IC50 under setting [1] turned out to be 13.4 nM.

On to `Cc1cc(-c2n[nH]c3cc(NC(=O)NC4CCCC(Oc5ccc(Cl)c(F)c5)C4)ncc23)ccn1` (stereo not shown) [Example 646], for which, under setting [1], the IC50 is 373 nM.

For `CC(C)CC(O)CNC(=O)c1n[nH]c2cc(NC(=O)N[C@H](C)c3ccccc3)ncc12` (stereo partly shown) [Example 135], the IC50 under setting [1] was 14.6 nM.

For the compound `CO[C@H](C)CNC(=O)Nc1cc2[nH]nc(-c3ccnc(C)c3)c2cn1` [Example 598], the IC50 under setting [1] is 1.55 nM.

Turning to `C[C@@H](NC(=O)Nc1cc2[nH]nc(-c3ccnc(F)c3)c2cn1)c1ccccc1` [Example 636], the 50% inhibitory concentration (IC50) under setting [1] was found to be 0.251 nM.

As to `Cc1nc2ccc(-c3n[nH]c4cc(NC(=O)N[C@H](C)c5ccccc5)ncc34)cc2o1` [Example 652], the IC50 under setting [1] turned out to be 0.72 nM.

As for `CCn1cc(CNC(=O)Nc2cc3[nH]nc(-c4ccnc(C)c4)c3cn2)cn1` [Example 471], under setting [1], the half-maximal inhibitory concentration (IC50) worked out at 10.2 nM.

As to `O=C(NCC1CCC1)Nc1cc2[nH]nc(-c3ccnc(F)c3)c2cn1` [Example 591], the IC50 under setting [1] was determined as 1.54 nM.

`Cc1cc(-c2n[nH]c3cc(NC(=O)NC(c4ccccc4)C4CCCO4)ncc23)ccn1` (stereo not shown) [Example 237]: the IC50 under setting [1] was determined as 0.566 nM.
